The source of these data is patent US6573293B2, “Pyrrole substituted 2-indolinone protein kinase inhibitors” (Sugen, Inc., priority 2000, dated 2003).

Structures are written as SMILES.

The target in one assay is T1, HER-2 kinase (Homo sapiens, UniProt P04626).
T1 construct: Use EGFr/HER-2 chimera/3T3-C7 cell line for this assay; It is expressed in mouse NIH 3T3 clone C7 cells; P00533 (Epidermal growth factor receptor)
As to the kind of experiment: Cellular HER-2 kinase assay. The format is cell-based. The settings on record: read-out: Her2 Kinase IC50.

The target of the next assay is T2, PDGFR-β (Homo sapiens, UniProt P09619).
T2 construct: host or cells: NIH 3T3
T2 sequence (P09619 33-1106): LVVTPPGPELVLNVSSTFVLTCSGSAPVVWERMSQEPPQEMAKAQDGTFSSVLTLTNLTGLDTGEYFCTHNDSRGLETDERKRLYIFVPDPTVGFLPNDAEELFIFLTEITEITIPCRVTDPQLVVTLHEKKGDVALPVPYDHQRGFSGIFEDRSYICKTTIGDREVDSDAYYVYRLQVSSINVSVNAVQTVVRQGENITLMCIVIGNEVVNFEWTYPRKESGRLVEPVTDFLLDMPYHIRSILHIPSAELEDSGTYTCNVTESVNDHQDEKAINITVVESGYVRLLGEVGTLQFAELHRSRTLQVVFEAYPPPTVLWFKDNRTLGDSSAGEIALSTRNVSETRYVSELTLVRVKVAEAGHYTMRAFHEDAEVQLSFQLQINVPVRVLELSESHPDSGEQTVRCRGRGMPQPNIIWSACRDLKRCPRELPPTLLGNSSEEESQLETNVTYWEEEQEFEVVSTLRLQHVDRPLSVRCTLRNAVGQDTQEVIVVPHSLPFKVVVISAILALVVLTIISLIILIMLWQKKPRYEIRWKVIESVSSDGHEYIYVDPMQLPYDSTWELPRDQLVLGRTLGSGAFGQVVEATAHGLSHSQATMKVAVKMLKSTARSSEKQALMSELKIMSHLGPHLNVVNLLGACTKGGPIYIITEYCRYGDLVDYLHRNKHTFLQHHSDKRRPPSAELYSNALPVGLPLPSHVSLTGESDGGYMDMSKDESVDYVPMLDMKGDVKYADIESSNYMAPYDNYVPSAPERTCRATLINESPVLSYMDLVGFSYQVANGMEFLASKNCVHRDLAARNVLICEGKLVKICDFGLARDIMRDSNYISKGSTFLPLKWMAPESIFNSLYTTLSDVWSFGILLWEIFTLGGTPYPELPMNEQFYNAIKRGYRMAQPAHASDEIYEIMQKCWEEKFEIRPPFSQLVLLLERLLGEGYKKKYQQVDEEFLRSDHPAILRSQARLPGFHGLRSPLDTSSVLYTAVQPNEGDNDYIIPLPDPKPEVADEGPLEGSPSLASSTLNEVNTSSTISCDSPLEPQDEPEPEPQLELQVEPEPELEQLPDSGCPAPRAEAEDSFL
The experiment in a line: PDGFR bioassay (bio PDGF). The class given is biochemical.

The next assay has as its target T3, GST-Flk1 (Mus musculus, UniProt P35918).
T3 construct: GST-Flk1cd purified from sf9 recombinant baculovirus transformation; host or cells: Sf9 (baculovirus)
The experiment in a line: GST-FLK-1 bioassay (bio flkGST). The format is biochemical.

Assay [1] has as its target T4, EGFR (Homo sapiens, UniProt P00533).
T4 construct: A431 cell lysate (SUGEN, Inc.); host or cells: A431
As to the kind of experiment: EGFR bioassay (bio EGF). The class given is biochemical.

For the next assay, the target named is GST-FGFR1 (Homo sapiens, UniProt P11362). As to the kind of experiment: FGFR1 bioassay (bio PGFR1). The class given is biochemical.
Sequence of GST-FGFR1 (P11362 22-822): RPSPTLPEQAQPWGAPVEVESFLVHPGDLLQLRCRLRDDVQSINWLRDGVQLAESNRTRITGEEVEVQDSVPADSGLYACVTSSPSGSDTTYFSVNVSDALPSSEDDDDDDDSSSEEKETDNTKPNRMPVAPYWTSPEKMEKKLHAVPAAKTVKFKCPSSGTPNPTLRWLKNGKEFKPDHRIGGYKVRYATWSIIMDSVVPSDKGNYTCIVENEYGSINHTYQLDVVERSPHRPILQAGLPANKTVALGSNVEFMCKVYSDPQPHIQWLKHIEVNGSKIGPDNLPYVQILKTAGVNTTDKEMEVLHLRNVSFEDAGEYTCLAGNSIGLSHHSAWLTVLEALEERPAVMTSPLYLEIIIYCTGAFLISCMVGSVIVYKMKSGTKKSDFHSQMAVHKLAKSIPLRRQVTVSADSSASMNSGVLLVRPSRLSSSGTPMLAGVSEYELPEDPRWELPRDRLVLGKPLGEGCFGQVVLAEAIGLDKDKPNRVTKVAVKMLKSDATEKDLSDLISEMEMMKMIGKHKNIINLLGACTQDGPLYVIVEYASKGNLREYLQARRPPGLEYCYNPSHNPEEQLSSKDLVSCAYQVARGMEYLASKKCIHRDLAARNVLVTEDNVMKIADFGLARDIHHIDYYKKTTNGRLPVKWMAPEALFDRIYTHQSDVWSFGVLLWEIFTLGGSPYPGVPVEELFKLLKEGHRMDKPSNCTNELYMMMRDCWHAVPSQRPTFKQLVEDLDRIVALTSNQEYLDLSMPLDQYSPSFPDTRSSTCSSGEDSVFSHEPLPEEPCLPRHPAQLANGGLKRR
Assay [2] addresses T4, EGFR. The experiment in a line: cell EGF assay. The format is cell-based. As to the method:
Several of the assays described herein are performed in an ELISA (Enzyme-Linked Immunosorbent Sandwich Assay) format (Voller, et al., 1980, “Enzyme-Linked Immunosorbent Assay,” Manual of Clinical Immunology, 2d ed., Rose and Friedman, Am. Soc. Of Microbiology, Washington, D.C., pp. 359-371). The general procedure is as follows: a compound is introduced to cells expressing the test kinase, either naturally or recombinantly, for a selected period of time after which, if the test kinase is a receptor, a ligand known to activate the receptor is added. The cells are lysed and the lysate is transferred to the wells of an ELISA plate previously coated with a specific antibody recognizing the substrate of the enzymatic phosphorylation reaction. Non-substrate components of the cell lysate are washed away and the amount of phosphorylation on the substrate is detected with an antibody specifically recognizing phosphotyrosine compared with control cells that were not contacted with a test compound.

Assay [3] has as its target T5, HA epitope-tagged full length pyk2 (FL.pyk2-HA) (Homo sapiens, UniProt Q14289).
T5 construct: host or cells: Sf9
The experiment in a line: PYK2 bioassay. The format is biochemical. The settings on record: read-out: bio pyk2 IC50.
Description: This assay is used to measure the in vitro kinase activity of HA epitope-tagged full length pyk2 (FL.pyk2-HA) in an ELISA assay.
Corning 96-well Elisa plates.
12CA5 monoclonal anti-HA antibody (SUGEN, Inc.)
PBS (Dulbecco's Phosphate-Buffered Saline (Gibco Catalog #450-1300EB)
Adjust pH to 7.2, bring volume to 1 L.
FL.pyk2-HA from sf9 cell lysates (SUGEN, Inc.).
Just prior to use, add 0.1 ml 1M DTT.
(§1) NUNC 96-well V bottom polypropylene plates.
ABTS, Moss, Cat. No. ABST-2000.
Coat Corning 96 well ELISA plates with 0.5 μg per well 12CA5 anti-HA antibody in 100 μl PBS. Store overnight at 4° C.
Remove unbound HA antibody from wells by inverting plate. Wash plate with dH2O. Pat the plate on a paper towel to remove excess liquid.
Add 150 μl Blocking Buffer to each well. Incubate, with shaking, for 30 min at room temperature.
Dilute lysate in PBS (1.5 μg lysate/100 μl PBS).
Add 100 μl of diluted lysate to each well. Shake at room temperature for 1 hr.
Add 50 μl of 2×kinase Buffer to ELISA plate containing captured pyk2-HA.
Add 25 μL of 400 μM test compound in 4% DMSO to each well. For control wells use 4% DMSO alone.
Add 25 μL of 0.5 M EDTA to negative control wells.
Add 25 μl of 20 μM ATP to all wells. Incubate, with shaking, for 10 minutes.
Stop reaction by adding 25 μl 500 mM EDTA (pH 8.0) to all wells.
Add 100 μL HRP conjugated anti-Ptyr diluted 1:6000 in Antibody Dilution Buffer to each well. Incubate, with shaking, for 1 hr. at room temperature.
Wash plate 3×with TBST and 1×with PBS.
Add 100 μL of ABST solution to each well.
If necessary, stop the development reaction by adding 20 μL 10% SDS to each well.

T4 sequence (P00533 25-1210): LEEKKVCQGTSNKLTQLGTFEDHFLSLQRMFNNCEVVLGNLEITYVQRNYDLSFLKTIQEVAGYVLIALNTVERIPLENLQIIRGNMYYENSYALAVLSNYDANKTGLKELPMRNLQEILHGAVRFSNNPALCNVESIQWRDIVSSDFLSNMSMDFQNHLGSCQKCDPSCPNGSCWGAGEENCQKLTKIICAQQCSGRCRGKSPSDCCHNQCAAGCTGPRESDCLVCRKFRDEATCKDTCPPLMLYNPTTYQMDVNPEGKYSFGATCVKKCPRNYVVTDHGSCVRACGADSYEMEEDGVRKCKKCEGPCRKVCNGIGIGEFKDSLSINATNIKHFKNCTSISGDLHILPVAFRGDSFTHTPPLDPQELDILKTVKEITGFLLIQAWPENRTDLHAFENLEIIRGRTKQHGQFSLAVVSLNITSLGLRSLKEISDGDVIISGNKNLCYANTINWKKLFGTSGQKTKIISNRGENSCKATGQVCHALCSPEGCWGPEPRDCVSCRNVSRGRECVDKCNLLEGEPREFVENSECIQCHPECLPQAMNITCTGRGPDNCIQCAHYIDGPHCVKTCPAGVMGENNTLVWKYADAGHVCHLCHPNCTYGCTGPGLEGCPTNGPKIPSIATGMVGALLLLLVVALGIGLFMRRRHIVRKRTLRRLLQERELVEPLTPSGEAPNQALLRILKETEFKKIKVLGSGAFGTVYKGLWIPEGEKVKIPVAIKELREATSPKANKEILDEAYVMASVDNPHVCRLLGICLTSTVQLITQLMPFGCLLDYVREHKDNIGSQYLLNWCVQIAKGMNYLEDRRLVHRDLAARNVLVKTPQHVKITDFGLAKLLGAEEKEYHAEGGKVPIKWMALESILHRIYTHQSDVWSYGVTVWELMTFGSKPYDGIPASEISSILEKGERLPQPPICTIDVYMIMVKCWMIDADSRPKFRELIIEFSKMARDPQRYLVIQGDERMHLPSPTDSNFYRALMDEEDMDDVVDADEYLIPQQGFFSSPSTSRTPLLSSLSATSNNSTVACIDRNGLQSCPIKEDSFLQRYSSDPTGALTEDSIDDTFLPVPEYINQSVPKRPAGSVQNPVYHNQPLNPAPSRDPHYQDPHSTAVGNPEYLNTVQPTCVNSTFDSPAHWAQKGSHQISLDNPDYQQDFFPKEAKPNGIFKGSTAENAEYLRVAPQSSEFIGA
T3 sequence (P35918 784-1345 limits assumed): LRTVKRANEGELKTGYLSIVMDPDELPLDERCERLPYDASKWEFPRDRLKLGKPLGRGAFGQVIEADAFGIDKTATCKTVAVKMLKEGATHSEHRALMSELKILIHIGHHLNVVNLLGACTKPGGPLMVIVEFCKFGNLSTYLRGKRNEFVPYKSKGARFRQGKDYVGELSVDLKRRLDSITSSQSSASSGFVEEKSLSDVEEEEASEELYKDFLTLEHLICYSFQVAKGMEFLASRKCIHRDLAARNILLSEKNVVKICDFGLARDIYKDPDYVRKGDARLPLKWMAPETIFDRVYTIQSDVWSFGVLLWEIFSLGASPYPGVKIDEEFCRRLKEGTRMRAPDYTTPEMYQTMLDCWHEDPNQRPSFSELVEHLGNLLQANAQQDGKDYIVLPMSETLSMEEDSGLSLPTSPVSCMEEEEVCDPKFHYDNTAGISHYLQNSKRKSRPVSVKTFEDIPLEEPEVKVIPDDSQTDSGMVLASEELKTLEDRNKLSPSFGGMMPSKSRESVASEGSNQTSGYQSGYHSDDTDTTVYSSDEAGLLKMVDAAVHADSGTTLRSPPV
T5 sequence (Q14289 whole entry): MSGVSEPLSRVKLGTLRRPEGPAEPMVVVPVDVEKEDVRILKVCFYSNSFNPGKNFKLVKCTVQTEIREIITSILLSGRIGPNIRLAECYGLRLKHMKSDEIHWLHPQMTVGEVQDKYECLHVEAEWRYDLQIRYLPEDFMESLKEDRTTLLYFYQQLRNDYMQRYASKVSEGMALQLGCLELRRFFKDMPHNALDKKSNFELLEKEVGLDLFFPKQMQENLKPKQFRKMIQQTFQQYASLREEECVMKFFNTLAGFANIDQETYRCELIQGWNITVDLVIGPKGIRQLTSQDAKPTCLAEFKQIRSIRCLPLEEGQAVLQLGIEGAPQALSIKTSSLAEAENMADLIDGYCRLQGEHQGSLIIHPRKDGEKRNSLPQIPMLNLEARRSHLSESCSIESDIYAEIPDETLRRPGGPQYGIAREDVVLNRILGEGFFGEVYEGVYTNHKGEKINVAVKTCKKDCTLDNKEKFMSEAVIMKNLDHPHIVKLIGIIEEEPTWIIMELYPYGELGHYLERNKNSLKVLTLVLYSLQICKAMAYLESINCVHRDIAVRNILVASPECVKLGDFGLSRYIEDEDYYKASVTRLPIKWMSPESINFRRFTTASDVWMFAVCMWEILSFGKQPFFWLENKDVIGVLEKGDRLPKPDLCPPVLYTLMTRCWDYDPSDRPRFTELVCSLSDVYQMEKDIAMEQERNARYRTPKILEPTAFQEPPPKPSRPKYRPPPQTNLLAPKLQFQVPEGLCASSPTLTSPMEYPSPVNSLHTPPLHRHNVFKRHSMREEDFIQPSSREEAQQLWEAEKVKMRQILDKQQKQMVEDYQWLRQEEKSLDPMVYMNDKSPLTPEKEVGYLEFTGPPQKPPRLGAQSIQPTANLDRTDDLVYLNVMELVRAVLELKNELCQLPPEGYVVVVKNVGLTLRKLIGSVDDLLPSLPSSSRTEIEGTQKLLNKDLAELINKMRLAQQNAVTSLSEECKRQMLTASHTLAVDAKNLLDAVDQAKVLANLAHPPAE
T1 sequence (P04626 720-987 limits assumed): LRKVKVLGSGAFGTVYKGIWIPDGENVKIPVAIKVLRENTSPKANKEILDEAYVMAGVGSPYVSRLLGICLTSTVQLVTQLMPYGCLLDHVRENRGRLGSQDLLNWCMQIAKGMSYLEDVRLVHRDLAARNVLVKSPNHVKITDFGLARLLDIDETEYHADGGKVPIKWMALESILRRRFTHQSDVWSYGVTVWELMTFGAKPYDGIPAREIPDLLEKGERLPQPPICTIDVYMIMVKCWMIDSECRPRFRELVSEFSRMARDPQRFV
Description for GST-FGFR1: This assay is used to measure the in vitro kinase activity of FGF1-R in an ELISA assay.
Poly(Glu-Tyr) (Sigma Catalog #PO275).
50 mM Hepes Buffer Solution.
Blocking Buffer (5% BSA/PBS).
Purified GST-FGFR1 (SUGEN, Inc.)
Mix 500 μl 1M Hepes (GIBCO), 20 μl 5% BSA/PBS, 10 μl 100 mM sodium orthovanadate and 50 μl 5M NaCl.
Add 500 μL TWEEN to 1 liter TBS.
(§2) Rabbit polyclonal anti-phosphotyrosine serum (SUGEN, Inc.).
Goat anti-rabbit IgG peroxidase conjugate (Biosource, Catalog #ALI0404).
Coat Costar 96 well ELISA plates with 1 μg per well Poly(Glu,Tyr) in 100 μl PBS. Store overnight at 4° C.
Wash coated plates once with PBS.
Add 150 μL of 5% BSA/PBS Blocking Buffer to each well. Incubate, with shaking, for 1 hr.room temperature.
Wash plate 2×with PBS, then once with 50 mM Hepes. Pat plates on a paper towel to remove excess liquid and bubbles.
Add 25 μL of 0.4 mM test compound in 4% DMSO or 4% DMSO alone (controls) to plate.
Dilute purified GST-FGFR1 in Kinase Dilution Buffer (5 ng kinase/50 ul KDB/well).
Add 50 μL of diluted kinase to each well.
This is a fast kinase reaction and must be stopped with 25 μL of 0.5M EDTA in a manner similar to the addition of ATP.
Wash plate 4×with fresh TBST.
Make up Antibody Dilution Buffer: Per 50 ml: Mix 5 ml of 5% BSA, 250 μl of 5% milk and 50 μl of 100 mM sodium vanadate, bring to final volume with 0.05% TBST.
Add 100 μl per well of anti-phosphotyrosine (1:10000 dilution in ADB). Incubate, with shaking for 1 hr. at room temperature.
Incubate, with shaking for 1 hr. at room temperature.
Wash as in step 10 and then with PBS to remove bubbles and excess TWEEN.
(§3) Add 100 μl of ABTS/H2O2 solution to each well.
17. […] Remove any bubbles.
Description for GST-Flk1: This assay analyzes the tyrosine kinase activity of GST-Flk1 on poly(glu,tyr) peptides.
Preparation of poly(glu,tyr)(pEY) coated assay plates: Coat 2 ug/well of poly(glu,tyr)(pEY) in 100 ul PBS, hold at room temperature for 2 hours or at 4° C. overnight. Cover plates well to prevent evaporation.
When all reagents have dissolved, adjust the pH to 7.2 with HCl. Bring total volume to 1 L with dH2O.
PBST Buffer: to 1 L of PBS Buffer, add 1.0 ml Tween-20.
Adjust pH to 7.2 with HCl. Add 10 g BSA, stir to dissolve. Bring total volume to 1 L with dH2O. Filter to remove particulate matter.
Adjust total volume to 1 L with PBS buffer, filter to remove particulate matter.
GST-Flk1cd purified from sf9 recombinant baculovirus transformation (SUGEN, Inc.).
Add 10 N NaOH until EDTA dissolves. Adjust pH to 8.0. Adjust total volume to 100 ml with dH2O.
Anti-phosphotyrosine monoclonal antibody conjugated to horseradish peroxidase (PY99 HRP, Santa Cruz Biotech).
2,2′-Azinobis(3-ethylbenzthiazoline-6-sulfonic acid (ABTS, Moss, Cat. No. ABST).
Coat Corning 96-well ELISA plates with 2 μg of polyEY peptide in sterile PBS as described in step 3 of Materials and Reagents.
Remove unbound liquid from wells by inverting plate. Wash once with TBST. Pat the plate on a paper towel to remove excess liquid.
Add 100 μl of 1% BSA in PBS to each well. Incubate, with shaking, for 1 hr. at room temperature.
Soak wells with 50 mM HEPES (pH7.5) (150 μl/well).
Dilute test compound with dH2O/4% DMSO to 4 times the desired final assay concentration in 96-well polypropylene plates.
Add 25 μl diluted test compound to ELISA plate. In control wells, place 25 μl of dH2O/4% DMSO.
Add 25 μl 0.5M EDTA to negative control wells.
Dilute GST-Flk1 to 0.005 μg (5 ng)/well with KDB.
Add 50 μl of diluted enzyme to each well.
Incubate, with shaking, for 15 minutes at room temperature.
Wash 3×with TBST and pat plate on paper towel to remove excess liquid.
Incubate, with shaking, for 90 min. at room temperature.
Add 100 μl of room temperature ABTS solution to each well.
Stop reaction by adding 20 μl of 10% SDS to each well.
Description for HER-2 kinase: Cellular HER-2 Kinase Assay
This assay is used to measure HER-2 kinase activity in whole cells in an ELISA format.
Fetal Bovine Serum (FBS, GIBCO Catalog #16000-044), heat inactivated in a water bath for 30 min. at 56° C.
Corning 96-well ELISA Plates.
as §1
SUMO 1: monoclonal anti-EGFR antibody (SUGEN, Inc.).
Blocking Buffer: 5% Carnation Instant Milk® in PBS.
Suspend powder in 100 uL of 10 mM HCl. Add 100 uL 10 mM NaOH. Add 800 uL PBS and transfer to an Eppendorf tube, store at −20° C. until ready to use.
Na3VO4. […] Adjust pH to 10. Boil in microwave for one minute (solution becomes clear). Cool to room temperature. Adjust pH to 10. Repeat heating/cooling cycle until pH remains at 10.
Rabbit polyclonal antiserum specific for phosphotyrosine (anti-Ptyr antibody, SUGEN, Inc.).
Affinity purified antiserum, goat anti-rabbit IgG antibody, peroxidase conjugate (Biosource Cat #ALI0404).
30% Hydrogen peroxide solution.
Coat Corning 96 well ELISA plates with SUMO1 at 1.0 ug per well in PBS, 100 ul final volume/well. Store overnight at 4° C.
On day of use, remove coating buffer and wash plate 3 times with dH2O and once with TBST buffer. All washes in this assay should be done in this manner, unless otherwise specified.
Add 100 ul of Blocking Buffer to each well. Incubate plate, with shaking, for 30 min. at room temperature. Just prior to use, wash plate.
Use EGFr/HER-2 chimera/3T3-C7 cell line for this assay.
Choose dishes having 80-90% confluence. Collect cells by trypsinization and centrifuge at 1000 rpm at room temperature for 5 min.
Resuspend cells in starve medium and count with trypan blue. Viability above 90% is required. Seed cells in starve medium at a density of 2,500 cells per well, 90 ul per well, in a 96 well microtiter plate. Incubate seeded cells overnight at 37° under 5% CO2.
Start the assay two days after seeding.
Test compounds are dissolved in 4% DMSO. Samples are then further diluted directly on plates with starve-DMEM. Typically, this dilution will be 1:10 or greater.
Incubate under 5% CO2 at 37° C. for 2 hours.
Prepare fresh HNTG* sufficient for 100 ul per well; place on ice.
After 2 hour incubation with test compound, add prepared EGF ligand to cells, 50 ul per well, for a final concentration of 50 nM. Positive control wells receive the same amount of EGF. […] Incubate at 37° C. for 10 min.
Remove test compound, EGF, and DMEM. Wash cells once with PBS.
Transfer HNTG* to cells, 100 ul per well. Place on ice for 5 minutes. Meanwhile, remove blocking buffer from ELISA plate and wash.
Scrape cells from plate with a micropipettor and homogenize cell material by repeatedly aspirating and dispensing the HNTG* lysis buffer. Transfer lysate to a coated, blocked, washed ELISA plate. Or, use a Costar transfer cartridge to transfer lysate to the plate.
Incubate, with shaking, at room temperature for 1 hr.
Remove lysate, wash. Transfer freshly diluted anti-Ptyr antibody (1:3000 in TBST) to ELISA plate, 100 ul per well.
Incubate, with shaking, at room temperature, for 30 min.
Remove anti-Ptyr antibody, wash. Transfer freshly diluted BIOSOURCE antibody to ELISA plate (1:8000 in TBST, 100 ul per well).
Incubate, with shaking, at room temperature for 30 min.
Remove BIOSOURCE antibody, wash. Transfer freshly prepared ABTS/H2O2 solution to ELISA plate, 100 ul per well.
Stop reaction with the addition of 100 ul of 0.2M HCl per well.
Description for PDGFR-β: Corning 96-well Elisa plates
28D4C10 monoclonal anti-PDGFR antibody (SUGEN, Inc.).
Blocking Buffer (same as for EGFR bioassay).
PDGFR-β expressing NIH 3T3 cell lysate (SUGEN, Inc.).
Kinase buffer phosphorylation mix: for 10 ml, mix 250 μl 1M TRIS, 200 μl 5M NaCl, 100 μl 1M MnCl2 and 50 μl 100 mM Triton X-100 in enough dH2O to make 10 ml.
as §1, §2
Goat anti-rabbit IgG peroxidase conjugate (Biosource Cat. No. ALI0404).
Hydrogen peroxide, 30% solution.
Coat Corning 96 well ELISA plates with 0.5 μg 28D4C10 in 100 μl PBS per well, store overnight at 4° C.
Remove unbound 28D4C10 from wells by inverting plate to remove liquid. Wash 1×with dH2O. Pat the plate on a paper towel to remove excess liquid.
Add 150 μl of Blocking Buffer to each well. Incubate for 30 min. at room temperature with shaking.
Wash plate 3×with deionized water, then once with TBST. Pat plate on a paper towel to remove excess liquid and bubbles.
Dilute lysate in HNTG (10 μg lysate/100 μl HNTG).
Add 100 μl of diluted lysate to each well. Shake at room temperature for 60 min.
Wash plates as described in Step 4.
Add 80 μl working kinase buffer mix to ELISA plate containing captured PDGFR.
Add 10 μl diluted test compound to ELISA plate. To control wells, add 10 μl TBS+10% DMSO. Incubate with shaking for 30 minutes at room temperature.
Add 10 μl ATP directly to all wells except negative control well (final well volume should be approximately 100 μl with 20 μM ATP in each well.) Incubate 30 minutes with shaking.
Stop reaction by adding 10 μl of EDTA solution to each well.
Wash 4×with deionized water, twice with TBST.
Add 100 μl anti-phosphotyrosine (1:3000 dilution in TBST) per well. Incubate with shaking for 30-45 min. at room temperature.
Incubate with shaking for 30 min. at room temperature.
as §3
Incubate 10 to 30 minutes with shaking. Remove any bubbles.
If necessary stop reaction with the addition of 100 μl 0.2 M HCl per well.

For orientation: IC50 means the concentration that gives 50% inhibition. On to `CCOC(=O)c1cc(C)c(/C=C2\C(=O)Nc3ccc(Cl)cc32)[nH]1` [Example 4, 5-(5-Chloro-2-oxo-1,2-dihydroindol-3-ylidenemethyl)-4-methyl-1H-pyrrole-2-carboxlyc acid ethyl ester], for which the IC50 was above 100 µM at HER-2 kinase; above 100 µM on PDGFR-β; 3.57 µM at GST-Flk1; above 100 µM at EGFR [1]; above 20 µM against GST-FGFR1; above 100 µM on EGFR [2].

Take `Cc1cc(C(=O)O)[nH]c1/C=C1\C(=O)Nc2ccc(Cl)cc21` [Example 5, 5-(5-Chloro-2-oxo-1,2-dihydroindol-3-ylidenemethyl)-4-methyl-1H-pyrrole-2-carboxylic acid]: the IC50 is above 100 µM on HER-2 kinase; above 100 µM against PDGFR-β; 8.3 µM at GST-Flk1; above 100 µM against EGFR [1]; 16.1 µM at GST-FGFR1; above 100 µM against EGFR [2].

On to `Cc1[nH]c(/C=C2\C(=O)Nc3ccc(-c4ccccc4)cc32)c(C)c1C(=O)NCCN1CCCC1` [Example 57, 2,4-Dimethyl-5-(2-oxo-5-phenyl-1,2-dihydroindol-3-ylidenemethyl)-1H-pyrrole-3-carboxylic acid (2-pyrrolidin-1-yl-ethyl)amide], for which the IC50 was 6.94 µM on HER-2 kinase; 7.98 µM on PDGFR-β; 0.06 µM against GST-Flk1; above 100 µM on EGFR [1]; 9.97 µM against EGFR [2].

With `Cc1[nH]c(/C=C2\C(=O)Nc3cc(-c4cccnc4)ccc32)c(C)c1C(=O)NCCN1CCCC1` [Example 64, 2,4-Dimethyl-5-(2-oxo-6-pyridin-3-yl-1,2-dihydroindol-3-ylidenemethyl)-1H-pyrrole-3-carboxylic acid (2-pyrrolidin-1-yl-ethyl)amide], the IC50 is above 100 µM at HER-2 kinase; below 0.78 µM at PDGFR-β; 0.55 µM against GST-Flk1; 30.5 µM against EGFR [1]; above 100 µM against EGFR [2].

Consider `Cc1[nH]c(/C=C2\C(=O)Nc3cc(-c4cccnc4)ccc32)c(C)c1C(=O)NCCCN(C)C` [Example 65, 2,4-Dimethyl-5-(2-oxo-6-pyridin-3-yl-1,2-dihydroindol-3-ylidenemethyl)-1H-pyrrole-3-carboxylic acid (3-dimethylamino-propyl)amide], for which the IC50 at HER-2 kinase is 16 µM; against PDGFR-β, below 0.05 µM; at GST-Flk1 it was 0.37 µM; on EGFR [1], above 100 µM; against EGFR [2], 74.4 µM.

Take `CCN(CC)CCCNC(=O)c1c(C)[nH]c(/C=C2\C(=O)Nc3ccc(-c4ccccc4)cc32)c1C` [Example 67, 2,4-Dimethyl-5-(2-oxo-5-phenyl-1,2-dihydroindol-3-ylidenemethyl)-1H-pyrrole-3-carboxylic acid (3-diethylaminopropyl)amide]: the IC50 on HER-2 kinase amounted to 2.56 µM; at PDGFR-β it was 24.8 µM; against GST-Flk1 it was 0.39 µM; on EGFR [1], 31.4 µM; against EGFR [2] it was 19.8 µM.

Turning to `CCN(CC)CCCNC(=O)c1c(C(C)C)[nH]c(/C=C2\C(=O)Nc3ccc(Br)cc32)c1C(C)C` [Example 72, 5-(5-Bromo-2-oxo-1,2-dihydroindol-3-ylidenemethyl)-2,4-diisopropyl-1H-pyrrole-3-carboxylic acid (3-diethylaminopropyl)amide], the IC50 was 9.65 µM on HER-2 kinase; 10.5 µM against PDGFR-β; 6.06 µM against GST-Flk1; above 100 µM against EGFR [1]; 39.9 µM against EGFR [2].

As to `CC(C)c1[nH]c(/C=C2\C(=O)Nc3ccc(Br)cc32)c(C(C)C)c1C(=O)NCCCN1CCCC1` [Example 73, 5-(5-Bromo-2-oxo-1,2-dihydroindol-3-ylidenemethyl)-2,4-diisopropyl-1H-pyrrole-3-carboxylic acid (3-pyrrolidin-1-ylpropyl)amide], the IC50 was 8.59 µM at HER-2 kinase; 14.1 µM at PDGFR-β; 5.95 µM against GST-Flk1; above 100 µM against EGFR [1]; 39.5 µM against EGFR [2].

In the case of `Cc1[nH]c(/C=C2\C(=O)Nc3ccc(S(=O)(=O)N(C)C)cc32)c(C)c1C(=O)NCCN1CCCC1` [Example 82, 5-(5-Dimethylsulfamoyl-2-oxo-1,2-dihydroindol-3-ylidenemethyl)-2,4-dimethyl-1H-pyrrole-3-carboxylic acid (2-pyrrolidin-1-yl-ethyl)amide], the IC50 in assay [3] worked out at 0.31 µM; on PDGFR-β, 6.88 µM; against GST-Flk1, 2.03 µM; at GST-FGFR1, 7.69 µM.

On to `Cc1[nH]c(/C=C2\C(=O)Nc3ccc(S(=O)(=O)Nc4cccnc4)cc32)c(C)c1C(=O)NCCN1CCCC1` [Example 84, 2,4-Dimethyl-5-[2-oxo-5-(pyridin-3-ylsulfamoyl)-1,2-dihydroindol-3-ylidenemethyl]-1H-pyrrole-3-carboxylic acid (2-pyrrolidin-1-yl-ethyl)amide], for which the IC50 in assay [3] is 0.006 µM; on HER-2 kinase it was 5.86 µM; against PDGFR-β it was 12.5 µM; at GST-Flk1, 1.38 µM; against EGFR [1], 67.2 µM.

For `Cc1[nH]c(/C=C2\C(=O)Nc3cccc(CCO)c32)c(C)c1C(=O)N1CCN(C)CC1` [Example 85, 3-[3,5-Dimethyl-4-(4-methyl-piperazine-1-carbonyl)-1H-pyrrol-2-ylmethylene]-4-(2-hydroxy-ethyl)-1,3-dihydroindol-2-one], the IC50 on HER-2 kinase was 3.76 µM; against PDGFR-β, 2.59 µM; on GST-Flk1, 0.2 µM; against EGFR [1], above 100 µM; against GST-FGFR1, 0.8 µM.

`Cc1[nH]c(/C=C2\C(=O)Nc3ccc(S(=O)(=O)Nc4ccccc4)cc32)c(C)c1C(=O)N1CCN(C)CC1` [Example 86, 3-[3,5-Dimethyl-4-(4-methyl-piperazine-1-carbonyl)-1H-pyrrol-2-ylmethylene]-2-oxo-2,3-dihydro-1H-indole-5-sulfonic acid phenylamide]: the IC50 was 3.58 µM in assay [3]; 19.6 µM against PDGFR-β; 1.45 µM at GST-Flk1; 41.8 µM at EGFR [1]; 1.3 µM on GST-FGFR1.

For `CCN(CC)CCNC(=O)c1c(C)[nH]c(/C=C2\C(=O)Nc3ccc(S(=O)(=O)N(C)C)cc32)c1C` [Example 87, 5-(5-Dimethylsulfamoyl-2-oxo-1,2-dihydroindol-3-ylidenemethyl)-2,4-dimethyl-1H-pyrrole-3-carboxylic acid (2-diethylaminoethyl)amide], the IC50 turned out to be 0.17 µM in assay [3]; 9.1 µM at HER-2 kinase; 6.46 µM on PDGFR-β; 3.27 µM against GST-Flk1; 7.56 µM against GST-FGFR1.

As for `CN(C)CCNC(=O)c1[nH]c(/C=C2\C(=O)Nc3ccc(Br)cc32)c2c1CCCC2` [Example 89, 3-(5-Bromo-2-oxo-1,2-dihydro-indol-3-ylidenemethyl)-4,5,6,7-tetrahydro-2H-isoindole-1-carboxylic acid (2-dimethylamino-ethyl)-amide], the IC50 at HER-2 kinase is 16 µM; at PDGFR-β, 47.6 µM; on GST-Flk1 it was 7.84 µM; at EGFR [1], 8.53 µM; against EGFR [2] it was 9.67 µM.
